Measured values reported in patent US7105576B2, “Synergistic effects of nuclear transcription factor NF-κB inhibitors and anti-neoplastic agents” (priority 2002, dated 2006).

Key:
[1] = test system: NF-κB; assay: EMSA of paclitaxel-induced NF-κB activation in MCF-7 cells; format: cell-based, human; details: curcumin pretreatment 2 h, then taxol 30 μM 12 hrs, EMSA of nuclear extract
Description: Nuclear extract was prepared and EMSA performed using 8 μg of nuclear protein. […] The nuclear extracts were prepared and analyzed by EMSA. The specificity of NF-κB can be examined by supershift analysis using antibodies against p50 and p65 subunits of NF-κB as described (109).

[2] = test system: MCF-7 cells; assay: Cell viability by the MTT method; format: cell-based, human; details: taxol 10 μM with or without curcumin 10 μM, 72 h
[3] = test system: MDA-MB-435 breast cancer cells; assay: Breast cancer metastasis after primary tumor removal, mammary fatpad xenograft; format: in vivo, female nude mice; details: for Incidence of macroscopic lung metastases / Median range of mets: 5 weeks after tumor removal; for Incidence of macroscopic lung metastases: paclitaxel 10 mg/kg i.p. day 10, 17, 24, 2% curcumin (w/w) diet; for Mean tumor Weight: MDA-MB-435 mammary fatpad tumors in nude mice; for Mean tumor Weight / Median range of mets: paclitaxel 10 mg/kg i.p., 2% curcumin diet; for Median range of mets: number of macroscopic lung metastases
Description: Human breast cancer cells (MDA-MB-231 or MDA-MB-435) that express constitutively active NF-κB can be injected into the mammary fatpad of female nude mice as previously described (127). […] Two millions MDA-MB-435 breast cancer cells were injected into the mammary fatpad of female nude mice. […] The treatment continue for up to 5 weeks after tumor removal, at which time the mice were killed and the number of visible metastases and presence of recurrent tumors or metastases in other organs were recorded. The lungs were fixed in 10% buffered formalin and paraffin-embedded section were stained with H&E to determine the incidence of micrometastases, or with antibodies recognizing the p65 subunit of NF-κB and HER2/neu. […] The significance of differences in the incidence of lung metastasis in the different groups was assessed using Fisher's exact test.

[4] = test system: NF-κB; assay: EMSA of TNF-dependent NF-κB activation in MDA-MB 435 cells; format: cell-based, human; details: curcumin 0 to 50 μM 4 h, then 0.1 nM TNF 30 min
Description: MCF-7 cells treated with 0 and 0.1 nM TNF was included as negative and positive control. […] The nuclear extracts were prepared and analyzed by EMSA. The specificity of NF-κB can be examined by supershift analysis using antibodies against p50 and p65 subunits of NF-κB as described (109).

[5] = test system: BT20, SKBR3, MCF-7, T47D, and ZR75-1; details: reference 63; cited from earlier work

| Compound | paclitaxel-induced NF-κB induction [1] | cytotoxic effects of paclitaxel (cell viability, MTT) [2] | Incidence of macroscopic lung metastases [3] [%] | Mean tumor Weight [3] [g] | effect on breast cancer metastases to the lung ([3]; mouse xenograft model, Table 1 and FIG. 5) | Median range of mets [3] | TNF-dependent NF-κB activation [4] | Growth of breast tumor cell lines [5] |
| --- | --- | --- | --- | --- | --- | --- | --- | --- |
| COc1cc(/C=C/C(=O)CC(=O)/C=C/c2ccc(O)c(OC)c2)ccc1O [Curcumin, diferuloylmethane] | downregulated paclitaxel-induced NF-κB induction in MCF-7 cells in a dose dependent manner | enhances the cytotoxic effects of paclitaxel | 71 | 0.71 ± 0.3 | enhances the effect of paclitaxel and suppresses breast cancer metastases to the lung | 5 (0–44) | inhibited TNF-dependent NF-κB activation | completely inhibited |
| CC(=O)O[C@H]1C(=O)[C@@]2(C)[C@H]([C@H](OC(=O)c3ccccc3)[C@]3(O)C[C@H](OC(=O)[C@H](O)[C@@H](NC(=O)c4ccccc4)c4ccccc4)C(C)=C1C3(C)C)[C@]1(OC(C)=O)CO[C@@H]1C[C@@H]2O [paclitaxel, Paclitaxel] |  |  | 83 | 0.74 ± 0.4 |  | 20 (0–>100) |  |  |
